# Assay results taken from patent publication US10906940B2, “Antimicrobial peptides, pharmaceutical compositions, and methods of use thereof” (priority 2014, dated 2021).
# Where a SMILES comes first, the peptide text is derived from it. Bridges are numbered along the chain shown (N, C = ends). [ ]: non-standard residue; d: D form. The star is where a group is joined. Tridecanoyl = CCCCCCCCCCCCC(=O)*; Undecanoyl = CCCCCCCCCCC(=O)*; dOrn = NCCC[C@@H](N)C(=O)O
# Columns and labels:
# [1] = tested on: Enterobacter cloacae SBJ-9395; format: cell-based; details: SBJ-9395
# Description: (§1) The same MIC assay as in Example 6 was used to determine the antimicrobial susceptibility of Compound A, L-form (FIG. 15), and several variants. One variant was Compound A, D-form, with D-Lysine at position 7. Compound B is a variant in the fatty acid chain, with a fatty acid chain composition of C15H29O, and having D-Lys at position 7. Compound C is a variant in the fatty acid chain with a fatty acid chain composition of C11H21O, and having D-Lys at position 7. Variant D is a sequence variant with Phe at position 6 of the cyclic peptide, and having D-Lys at position 7. All variants were chemically synthesized.
# [2] = tested on: Salmonella CVM 1290 (cmy2); format: cell-based
# Description: as §1
# [3] = tested on: Salmonella CVM 40118 (oxa-1); format: cell-based
# Description: as §1
# [4] = tested on: Salmonella CVM 40119 (tem 12); format: cell-based
# Description: as §1
# [5] = tested on: Serratia marcescens SAMN 04276914; format: cell-based; details: SAMN 04276914
# Description: as §1
# [6] = tested on: Serratia marcescens SAMN 04276915; format: cell-based; details: SAMN 04276915
# Description: as §1
# [7] = tested on: Serratia marcescens SAMN04022954; format: cell-based; details: SAMN04022954
# Description: as §1
# [8] = tested on: Serratia marcescens SBJ-8283; format: cell-based; details: SBJ-8283
# Description: as §1
# [9] = tested on: Serratia marcescens SBJ-9047; format: cell-based; details: SBJ-9047
# Description: as §1
# [10] = tested on: S. aureus 10; experiment: microbe, parasite or virus in culture; format: cell-based, Staphylococcus aureus; details: 10
# Description: as §1
# [11] = tested on: S. aureus 12; experiment: microbe, parasite or virus in culture; format: cell-based, Staphylococcus aureus; details: 12
# Description: as §1
# [12] = tested on: S. aureus 14; experiment: microbe, parasite or virus in culture; format: cell-based, Staphylococcus aureus; details: 14
# Description: as §1
# [13] = tested on: S. aureus 19; experiment: microbe, parasite or virus in culture; format: cell-based, Staphylococcus aureus; details: 19
# Description: as §1
# [14] = tested on: S. aureus 2; experiment: microbe, parasite or virus in culture; format: cell-based, Staphylococcus aureus; details: 2
# Description: as §1
# [15] = tested on: S. aureus 4; experiment: microbe, parasite or virus in culture; format: cell-based, Staphylococcus aureus; details: 4
# Description: as §1
# [16] = tested on: S. aureus 6; experiment: microbe, parasite or virus in culture; format: cell-based, Staphylococcus aureus; details: 6
# Description: as §1
# [17] = tested on: S. aureus 8; experiment: microbe, parasite or virus in culture; format: cell-based, Staphylococcus aureus; details: 8
# Description: as §1
# [18] = tested on: E. faecium ATCC 2320; experiment: microbe, parasite or virus in culture; format: cell-based; details: ATCC 2320
# Description: as §1
# [19] = tested on: E. faecium ATCC 700221; experiment: microbe, parasite or virus in culture; format: cell-based; details: ATCC 700221
# Description: as §1
# [20] = tested on: E. faecium BAA-2318; experiment: microbe, parasite or virus in culture; format: cell-based; details: BAA-2318
# Description: as §1
# [21] = tested on: E. faecalis ATCC 51575; experiment: microbe, parasite or virus in culture; format: cell-based, Enterococcus faecalis; details: ATCC 51575
# Description: as §1
# [22] = tested on: E. faecalis BAA-2365; experiment: microbe, parasite or virus in culture; format: cell-based, Enterococcus faecalis; details: BAA-2365
# Description: as §1
# [23] = tested on: K. pneumonia CVM 15105 (shv5); format: cell-based, Klebsiella pneumoniae
# Description: as §1
# [24] = tested on: K. pneumonia CVM 40142 (ges-1); format: cell-based, Klebsiella pneumoniae
# Description: as §1
# [25] = tested on: K. pneumoniae CVM 15102 (shv5); format: cell-based, Klebsiella pneumoniae
# Description: as §1
# [26] = tested on: K. pneumoniae CVM 9246 (shv18, oxa2); format: cell-based, Klebsiella pneumoniae
# Description: as §1
# [27] = tested on: E. coli CVM 35778 (ctx-m-2); format: cell-based, Escherichia coli
# Description: as §1
# [28] = tested on: E. coli CVM 40127 (oxa-2); format: cell-based, Escherichia coli
# Description: as §1
# [29] = tested on: E. coli CVM 40128 (oxa-7); format: cell-based, Escherichia coli
# Description: as §1
# [30] = tested on: E. coli CVM 40129 (oxa-5); format: cell-based, Escherichia coli
# Description: as §1
# [31] = tested on: E. coli CVM 40131 (ctx-m-2); format: cell-based, Escherichia coli
# Description: as §1
# [32] = tested on: E. coli CVM 40137 (DHA-1); format: cell-based, Escherichia coli
# Description: as §1
# [33] = tested on: E. coli CVM 40143 (act-1); format: cell-based, Escherichia coli
# Description: as §1
# [34] = tested on: E. cloacae CVM 15101 (P99); format: cell-based, Enterobacter cloacae
# Description: as §1
# [35] = tested on: S. Bareilly CVM40145 (ACC-1); format: cell-based, Salmonella
# Description: as §1
# [36] = tested on: S. Heidelberg CVM 40140 (cmy-2); format: cell-based, Salmonella
# Description: as §1
# [37] = tested on: S. Keur massar CVM 40135 (shv12); format: cell-based, Salmonella
# Description: as §1
# [38] = tested on: S. Newport CVM 40115 (cmy 2); format: cell-based, Salmonella
# Description: as §1
# [39] = tested on: S. Typhimurium CVM 40117 (ctx-m-5); format: cell-based, Salmonella
# Description: as §1
# [40] = tested on: P. aeruginosa CVM 40144 (PER-1); format: cell-based, Pseudomonas aeruginosa
# Description: as §1
Compound,MIC [1] [µg/mL],MIC [2] [µg/mL],MIC [3] [µg/mL],MIC [4] [µg/mL],MIC [5] [µg/mL],MIC [6] [µg/mL],MIC [7] [µg/mL],MIC [8] [µg/mL],MIC [9] [µg/mL],MIC [10] [µg/mL],MIC [11] [µg/mL],MIC [12] [µg/mL],MIC [13] [µg/mL],MIC [14] [µg/mL],MIC [15] [µg/mL],MIC [16] [µg/mL],MIC [17] [µg/mL],MIC [18] [µg/mL],MIC [19] [µg/mL],MIC [20] [µg/mL],other results
CCCCCCCCCCCCC(=O)N[C@H](CCCN)C(=O)N[C@H](C(=O)N[C@@H]1C(=O)N[C@H](CCCN)C(=O)N[C@@H](CO)C(=O)N[C@@H](Cc2ccccc2)C(=O)N[C@H](CCCCN)C(=O)N[C@H](CO)C(=O)N[C@@H]([C@@H](C)CC)C(=O)N2CCC[C@H]2C(=O)N[C@@H]([C@@H](C)CC)C(=O)N2CCC[C@H]2C(=O)N[C@@H]([C@@H](C)CC)C(=O)O[C@@H]1C)C(C)C [Variant D] (Tridecanoyl-[dOrn]VT[dOrn]SF[dK][dS]IPIPI; ester 3-C; N-terminus assumed),32,8,8,8,64,≥128,≥128,32,≥128,8,8,8,8,8,8,8,8,8,8,8,MIC [21]: 8 µg/mL; MIC [22]: 8 µg/mL; MIC [23]: 8 µg/mL; MIC [24]: 8 µg/mL; MIC [25]: 8 µg/mL; MIC [26]: 8 µg/mL; MIC [27]: 16 µg/mL; MIC [28]: 8 µg/mL; MIC [29]: 8 µg/mL; MIC [30]: 8 µg/mL; MIC [31]: 8 µg/mL; MIC [32]: 8 µg/mL; MIC [33]: 16 µg/mL; MIC [34]: 8 µg/mL; MIC [35]: 32 µg/mL; MIC [36]: 16 µg/mL; MIC [37]: 16 µg/mL; MIC [38]: 8 µg/mL; MIC [39]: 8 µg/mL; MIC [40]: 16 µg/mL
CCCCCCCCCCC(=O)N[C@H](CCCN)C(=O)N[C@H](C(=O)N[C@@H]1C(=O)N[C@H](CCCN)C(=O)N[C@@H](CO)C(=O)N[C@@H](Cc2ccc(O)cc2)C(=O)N[C@H](CCCCN)C(=O)N[C@H](CO)C(=O)N[C@@H]([C@@H](C)CC)C(=O)N2CCC[C@H]2C(=O)N[C@@H]([C@@H](C)CC)C(=O)N2CCC[C@H]2C(=O)N[C@@H]([C@@H](C)CC)C(=O)O[C@@H]1C)C(C)C [Compound C] (Undecanoyl-[dOrn]VT[dOrn]SY[dK][dS]IPIPI; ester 3-C; N-terminus assumed),8,16,4,8,64,≥128,64,32,64,8,8,8,8,8,8,8,8,8,8,8,MIC [21]: 32 µg/mL; MIC [22]: 32 µg/mL; MIC [23]: 8 µg/mL; MIC [24]: 8 µg/mL; MIC [25]: 8 µg/mL; MIC [26]: 8 µg/mL; MIC [27]: 16 µg/mL; MIC [28]: 8 µg/mL; MIC [29]: 8 µg/mL; MIC [30]: 8 µg/mL; MIC [31]: 8 µg/mL; MIC [32]: 8 µg/mL; MIC [33]: 8 µg/mL; MIC [34]: 8 µg/mL; MIC [35]: 16 µg/mL; MIC [36]: 16 µg/mL; MIC [37]: 16 µg/mL; MIC [38]: 16 µg/mL; MIC [39]: 16 µg/mL; MIC [40]: 16 µg/mL
